Experimental data: patent publication US8471063B2, “Michael systems as transglutaminase inhibitors” (Zedira GmbH, priority 2006, dated 2013)

Columns and labels:
Format in all cases: biochemical
FXIII = biological target: T1, FXIII (Homo sapiens, UniProt P00488); assay: Transglutaminase inhibition, IC50 at FXIII
T1 sequence (P00488 1-732): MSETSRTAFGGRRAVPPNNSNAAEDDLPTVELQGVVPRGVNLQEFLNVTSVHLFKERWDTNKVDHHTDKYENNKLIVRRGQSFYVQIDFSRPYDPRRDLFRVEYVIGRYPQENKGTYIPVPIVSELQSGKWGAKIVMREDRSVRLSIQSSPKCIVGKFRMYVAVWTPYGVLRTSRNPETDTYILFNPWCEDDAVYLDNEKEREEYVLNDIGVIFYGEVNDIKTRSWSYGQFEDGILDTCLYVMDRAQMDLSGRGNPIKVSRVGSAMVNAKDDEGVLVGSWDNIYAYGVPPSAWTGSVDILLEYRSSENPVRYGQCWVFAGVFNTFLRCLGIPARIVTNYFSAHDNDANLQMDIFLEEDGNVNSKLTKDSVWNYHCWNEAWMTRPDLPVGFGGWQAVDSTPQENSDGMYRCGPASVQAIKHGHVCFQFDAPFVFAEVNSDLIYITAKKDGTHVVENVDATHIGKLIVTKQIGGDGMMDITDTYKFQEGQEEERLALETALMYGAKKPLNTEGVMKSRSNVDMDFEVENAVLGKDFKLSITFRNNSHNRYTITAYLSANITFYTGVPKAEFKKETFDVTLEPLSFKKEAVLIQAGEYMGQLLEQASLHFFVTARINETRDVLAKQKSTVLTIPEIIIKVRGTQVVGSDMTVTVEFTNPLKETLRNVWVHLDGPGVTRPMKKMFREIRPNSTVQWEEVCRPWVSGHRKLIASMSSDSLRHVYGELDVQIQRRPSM

TG1 = biological target: T2, TG1 (Homo sapiens, UniProt P22735); assay: Transglutaminase inhibition, IC50 at TG1
T2 sequence (P22735 1-817): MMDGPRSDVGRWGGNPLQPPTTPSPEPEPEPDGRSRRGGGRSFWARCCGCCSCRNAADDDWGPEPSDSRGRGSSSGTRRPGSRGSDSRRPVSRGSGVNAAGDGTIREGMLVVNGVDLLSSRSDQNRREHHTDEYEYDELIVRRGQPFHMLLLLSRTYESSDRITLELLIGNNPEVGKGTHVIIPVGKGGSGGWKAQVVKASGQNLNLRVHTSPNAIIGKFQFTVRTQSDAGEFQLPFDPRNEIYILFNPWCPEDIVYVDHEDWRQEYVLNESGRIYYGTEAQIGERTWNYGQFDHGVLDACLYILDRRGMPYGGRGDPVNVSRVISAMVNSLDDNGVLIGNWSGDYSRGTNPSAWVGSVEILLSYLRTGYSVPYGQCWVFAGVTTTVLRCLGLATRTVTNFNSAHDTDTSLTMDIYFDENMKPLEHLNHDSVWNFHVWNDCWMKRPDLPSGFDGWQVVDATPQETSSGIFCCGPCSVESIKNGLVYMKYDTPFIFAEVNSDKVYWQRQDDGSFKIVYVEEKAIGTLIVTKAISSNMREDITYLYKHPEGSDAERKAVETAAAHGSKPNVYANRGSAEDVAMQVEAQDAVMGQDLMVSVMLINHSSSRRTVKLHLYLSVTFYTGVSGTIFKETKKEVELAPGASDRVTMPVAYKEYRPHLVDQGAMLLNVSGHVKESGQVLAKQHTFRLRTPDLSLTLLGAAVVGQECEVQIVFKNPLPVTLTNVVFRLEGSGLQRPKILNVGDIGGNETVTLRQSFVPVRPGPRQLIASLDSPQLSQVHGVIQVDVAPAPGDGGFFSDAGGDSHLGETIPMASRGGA

[1] = biological target: T3, recombinant human tissue transglutaminase (His6-rh-TG2) (Homo sapiens, UniProt P21980); assay: Inactivation of human tissue transglutaminase, fluorescence assay, IC50; conditions: 5 min preincubation, 37° C.
T3 sequence (P21980 1-687): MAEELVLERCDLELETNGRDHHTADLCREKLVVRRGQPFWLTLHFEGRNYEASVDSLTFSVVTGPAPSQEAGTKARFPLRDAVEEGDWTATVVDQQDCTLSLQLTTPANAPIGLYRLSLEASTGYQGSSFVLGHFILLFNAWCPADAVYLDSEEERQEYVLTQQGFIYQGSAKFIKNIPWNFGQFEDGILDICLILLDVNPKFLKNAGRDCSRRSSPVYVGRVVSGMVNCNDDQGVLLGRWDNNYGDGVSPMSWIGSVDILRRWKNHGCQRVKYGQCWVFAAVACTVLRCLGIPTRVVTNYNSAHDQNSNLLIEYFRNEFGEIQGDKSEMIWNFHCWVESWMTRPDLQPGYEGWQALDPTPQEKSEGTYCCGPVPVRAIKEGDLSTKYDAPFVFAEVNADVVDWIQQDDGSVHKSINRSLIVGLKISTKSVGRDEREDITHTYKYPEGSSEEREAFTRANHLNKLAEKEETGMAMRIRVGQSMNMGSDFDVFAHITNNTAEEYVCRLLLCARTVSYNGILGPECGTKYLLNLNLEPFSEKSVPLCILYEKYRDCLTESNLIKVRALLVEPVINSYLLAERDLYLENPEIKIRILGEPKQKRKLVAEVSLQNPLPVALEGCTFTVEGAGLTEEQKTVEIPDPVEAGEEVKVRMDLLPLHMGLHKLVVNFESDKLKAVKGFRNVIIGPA
Procedure: 250 μg of lyophilized his-tagged recombinant human tissue transglutaminase (His6-rh-TG2) are reconstituted by the addition of 150 μl of water (resulting buffer 50 mM of NaH2PO4, 150 mM of NaCl, pH=8).
A 10 mM inhibitor stock solution in DMSO is prepared and diluted with buffer (50 mM of Tris-HCl, 10 mM of CaCl2, 5 mM of DTT, pH=7.5, respectively) to the 20-fold of the concentration desired for the inhibition mixture (at least 1/50 dilution resulting in 2% DMSO concentration).
900 μl of an assay solution composed of 55.56 mM of Tris, 11.11 mM of CaCl2, 0.11% PEG8000, 5.56 mM of DTT, 5.56 mM of glycine methyl ester and 50 μM of Abz-APE(CAD-DNP)QEA-OH, (patent number:), pH=7.5 are placed in a cuvette and brought to a temperature of 37° C. in the measuring cell of a spectrophotometer. 50 μl of the respective inhibitor solution are added to said solution (resulting in a concentration of less than 0.2% of DMSO in the mixture).
7 μl of the transglutaminase solution reconstituted above are diluted with 51 μl of buffer (50 mM of Tris, 100 mM of NaCl, 5 mM of DTT, pH=7.5). 50 μl of said enzyme solution (10 μg His6-rhTG2) are added to the assay solution containing the respective inhibitor concentration. The mixture is incubated for 5 min at 37° C. before the measurement is performed. λexc=313 nm and λem=418 nm, 15 min)
The resulting enzyme activity was measured by analyzing the slope of the straight line obtained by the increase in fluorescence.
DMSO is used instead of inhibitor stock solution in order to determine the non-inhibited enzyme activity. IC50 values are determined by plotting the resulting enzyme activity against the logarithm of the inhibitor concentration. IC50 is defined as the concentration of an inhibitor at which enzyme activity is reduced to 50% after 5 min of preincubation.

Row | IC50 (FXIII; Table 2) [µM] | IC50 (TG1; Table 2) [µM] | IC50 ([1]; Table 2) [µM] | IC50 (FXIII; Table 1) [µM] | IC50 (TG1; Table 1) [µM] | IC50 ([1]; Table 1) [µM] | SMILES
1 | > 100 | 0.4 | 8.9 | – | – | – | COC(=O)[C@H](CC(C)C)NC(=O)[C@@H]1CCCN1C(=O)[C@H](CCC(N)=O)NC(=O)[C@H](CC/C=C1\CCOC1=O)NC(=O)OCc1ccccc1 [Compound 3.2.4, N^α-benzyloxycarbonyl[(L)-2-amino-5-(2-oxo-dihydrofurane-(3E)-ylidene)]-pentanoyl-L-glutaminyl-L-prolinyl-L-Ieucine methyl ester]
2 | > 100 | 0.53 | 3.8 | – | – | – | CCOC(=O)C(=O)/C=C/CC[C@H](NC(=O)OCc1ccccc1)C(=O)N[C@@H](Cc1ccccc1)C(=O)OC [Compound 3.2.9]
3 | – | – | – | 2.5 | 0.2 | 8 | CCOC(=O)/C=C/CC[C@H](NC(=O)OCc1ccccc1)C(=O)N[C@@H](Cc1ccccc1)C(=O)OC [Compound 3, N^α-benzyloxycarbonyl-{[(E)-(L)-6-amino-hept-2-ene-dicarboxylic acid]-1-ethanoyl}-L-phenylalanine methyl ester]
